Experimental data as given in article PMC6979384, “Characterization of the plant homeodomain (PHD) reader family for their histone tail interactions” (Epigenetics & Chromatin, 2020).

How the values were obtained:
Experiment in all cases: Histone peptide microarray
Format in all cases: binding, human
CHD5 (PPCC) = details: GST-tagged CHD5 (PPCC = Dual PHD + Dual Chromodomain); histone peptide array; arrays performed twice, n of 4
Method in brief: (§1)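 GST-tagged PHD finger readers were expressed, purified and applied at 0.5 μM to a microarray of 293 synthetic histone peptides carrying single or combinatorial PTMs, using an optimized protocol. Binding signals are averages with standard deviation from 4 replicates.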

PHF21A = details: GST-tagged PHF21A; histone peptide array; arrays performed twice, n of 4
Method in brief: as §1

ING1 = details: GST-tagged ING1; histone peptide array; arrays performed twice, n of 4
Method in brief: as §1

KDM5A (3) = details: GST-tagged KDM5A (3); histone peptide array; arrays performed twice, n of 4
Method in brief: as §1

CHD5 (PCC) = details: GST-tagged CHD5 (PCC = PHD + Dual Chromodomain); histone peptide array; arrays performed twice, n of 4
Method in brief: as §1

ING5 = details: GST-tagged ING5; histone peptide array; arrays performed twice, n of 4
Method in brief: as §1

PHF13 = details: GST-tagged PHF13; histone peptide array; arrays performed twice, n of 4
Method in brief: as §1

BAZ2B = details: GST-tagged BAZ2B; histone peptide array; arrays performed twice, n of 4
Method in brief: as §1

MLL5 = details: GST-tagged MLL5; histone peptide array; arrays performed twice, n of 4
Method in brief: as §1

SP140L = details: GST-tagged SP140L; histone peptide array; arrays performed twice, n of 4
Method in brief: as §1

ING3 = details: GST-tagged ING3; histone peptide array; arrays performed twice, n of 4
Method in brief: as §1

RAG2 = details: GST-tagged RAG2; histone peptide array; arrays performed twice, n of 4
Method in brief: as §1

PHF2 = details: GST-tagged PHF2; histone peptide array; arrays performed twice, n of 4
Method in brief: as §1

DPF2 (PPC2W2) = details: GST-tagged DPF2 (PPC2W2 = Dual PHD + C2W2-type Zn-finger); histone peptide array; arrays performed twice, n of 4
Method in brief: as §1

KDM5A (1) = details: GST-tagged KDM5A (1); histone peptide array; arrays performed twice, n of 4
Method in brief: as §1

MORC3 (CW) = details: GST-tagged MORC3 (CW = CW-type Zn-finger); histone peptide array; arrays performed twice, n of 4
Method in brief: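 GST-tagged PHD readers, 0.5 μM, probed on a microarray of 293 synthetic histone peptides carrying single or combinatorial PTMs (optimized Petell protocol). Signals are averaged over 4 replicates and expressed as relative binding.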

DIDO1 = details: GST-tagged DIDO1; histone peptide array; arrays performed twice, n of 4
Method in brief: as §1

KDM4C (TTP) = details: GST-tagged KDM4C (TTP = Tandem Tudor domain + PHD); histone peptide array; arrays performed twice, n of 4
Method in brief: as §1

PHF8 = details: GST-tagged PHF8; histone peptide array; arrays performed twice, n of 4
Method in brief: as §1

BPTF (PB) = details: GST-tagged BPTF (PB = PHD + Bromodomain); histone peptide array; arrays performed twice, n of 4
Method in brief: as §1

PHF23 = details: GST-tagged PHF23; histone peptide array; arrays performed twice, n of 4
Method in brief: as §1

PHRF1 (RP) = details: GST-tagged PHRF1 (RP); histone peptide array; arrays performed twice, n of 4
Method in brief: as §1

CHD4 (PPCC) = details: GST-tagged CHD4 (PPCC = Dual PHD + Dual Chromodomain); histone peptide array; arrays performed twice, n of 4
Method in brief: as §1

TRIM66 (PB) = details: GST-tagged TRIM66 (PB = PHD + Bromodomain); histone peptide array; arrays performed twice, n of 4
Method in brief: as §1

KDM7A = details: GST-tagged KDM7A; histone peptide array; arrays performed twice, n of 4
Method in brief: as §1

KDM5B (1) = details: GST-tagged KDM5B (1); histone peptide array; arrays performed twice, n of 4
Method in brief: as §1

KDM5B (3) = details: GST-tagged KDM5B (3); histone peptide array; arrays performed twice, n of 4
Method in brief: as §1

ING2 = details: GST-tagged ING2; histone peptide array; arrays performed twice, n of 4
Method in brief: as §1

AIRE (PP) = details: GST-tagged AIRE (PP); histone peptide array; arrays performed twice, n of 4
Method in brief: as §1

ING4 = details: GST-tagged ING4; histone peptide array; arrays performed twice, n of 4
Method in brief: as §1

TAF3 = details: GST-tagged TAF3; histone peptide array; arrays performed twice, n of 4
Method in brief: as §1

H4R3me2s: H4 1-23 [Peptide H4R3me2s]
Array Heatmap signal, CHD5 (PPCC) (CHD5 (PPCC)): 0.5547
Array Heatmap signal, PHF21A (PHF21A): 0.451
Array Heatmap signal, ING1 (ING1): 0.5148
Array Heatmap signal, KDM5A (3) (KDM5A (3)): 0.6488
Array Heatmap signal, CHD5 (PCC) (CHD5 (PCC)): 0.8078
Array Heatmap signal, ING5 (ING5): 0.3741
Array Heatmap signal, PHF13 (PHF13): 0.6145
Array Heatmap signal, BAZ2B (BAZ2B): 0.5351
Array Heatmap signal, MLL5 (MLL5): 0.6336
Array Heatmap signal, SP140L (SP140L): 0.3481
Array Heatmap signal, ING3 (ING3): 0.498
Array Heatmap signal, RAG2 (RAG2): 0.376
Array Heatmap signal, PHF2 (PHF2): 0.5067
Array Heatmap signal, DPF2 (PPC2W2) (DPF2 (PPC2W2)): 0.7228
Array Heatmap signal, KDM5A (1) (KDM5A (1)): 0.4765
Array Heatmap signal, MORC3 (CW) (MORC3 (CW)): 0.4671
Array Heatmap signal, DIDO1 (DIDO1): 0.7583
Array Heatmap signal, KDM4C (TTP) (KDM4C (TTP)): 0.5129
Array Heatmap signal, PHF8 (PHF8): 0.4581
Array Heatmap signal, BPTF (PB) (BPTF (PB)): 0.3851
Array Heatmap signal, PHF23 (PHF23): 0.6199
Array Heatmap signal, PHRF1 (RP) (PHRF1 (RP)): 0.4693
Array Heatmap signal, CHD4 (PPCC) (CHD4 (PPCC)): 0.556
Array Heatmap signal, TRIM66 (PB) (TRIM66 (PB)): 0.614
Array Heatmap signal, KDM7A (KDM7A): 0.4774
Array Heatmap signal, KDM5B (1) (KDM5B (1)): 0.7045
Array Heatmap signal, KDM5B (3) (KDM5B (3)): 0.5522
Array Heatmap signal, ING2 (ING2): 0.6344
Array Heatmap signal, AIRE (PP) (AIRE (PP)): 0.462
Array Heatmap signal, ING4 (ING4): 0.4621
Array Heatmap signal, TAF3 (TAF3): 0.3502

H4S1p + R3me2a: H4 1-23
Array Heatmap signal, CHD5 (PPCC) (CHD5 (PPCC)): 0.617
Array Heatmap signal, PHF21A (PHF21A): 0.4964
Array Heatmap signal, ING1 (ING1): 0.5568
Array Heatmap signal, KDM5A (3) (KDM5A (3)): 0.5495
Array Heatmap signal, CHD5 (PCC) (CHD5 (PCC)): 0.908
Array Heatmap signal, ING5 (ING5): 0.4163
Array Heatmap signal, PHF13 (PHF13): 0.7049
Array Heatmap signal, BAZ2B (BAZ2B): 0.5882
Array Heatmap signal, MLL5 (MLL5): 0.6348
Array Heatmap signal, SP140L (SP140L): 0.4294
Array Heatmap signal, ING3 (ING3): 0.5499
Array Heatmap signal, RAG2 (RAG2): 0.4591
Array Heatmap signal, PHF2 (PHF2): 0.5511
Array Heatmap signal, DPF2 (PPC2W2) (DPF2 (PPC2W2)): 0.7324
Array Heatmap signal, KDM5A (1) (KDM5A (1)): 0.5298
Array Heatmap signal, MORC3 (CW) (MORC3 (CW)): 0.5537
Array Heatmap signal, DIDO1 (DIDO1): 0.8161
Array Heatmap signal, KDM4C (TTP) (KDM4C (TTP)): 0.5709
Array Heatmap signal, PHF8 (PHF8): 0.44
Array Heatmap signal, BPTF (PB) (BPTF (PB)): 0.4592
Array Heatmap signal, PHF23 (PHF23): 0.6265
Array Heatmap signal, PHRF1 (RP) (PHRF1 (RP)): 0.5062
Array Heatmap signal, CHD4 (PPCC) (CHD4 (PPCC)): 0.6213
Array Heatmap signal, TRIM66 (PB) (TRIM66 (PB)): 0.7721
Array Heatmap signal, KDM7A (KDM7A): 0.485
Array Heatmap signal, KDM5B (1) (KDM5B (1)): 0.7314
Array Heatmap signal, KDM5B (3) (KDM5B (3)): 0.6926
Array Heatmap signal, ING2 (ING2): 0.6378
Array Heatmap signal, AIRE (PP) (AIRE (PP)): 0.6422
Array Heatmap signal, ING4 (ING4): 0.5743
Array Heatmap signal, TAF3 (TAF3): 0.5622

H4S1p + R3me2s: H4 1-23
Array Heatmap signal, CHD5 (PPCC) (CHD5 (PPCC)): 0.6121
Array Heatmap signal, PHF21A (PHF21A): 0.5145
Array Heatmap signal, ING1 (ING1): 0.5472
Array Heatmap signal, KDM5A (3) (KDM5A (3)): 0.5274
Array Heatmap signal, CHD5 (PCC) (CHD5 (PCC)): 0.9435
Array Heatmap signal, ING5 (ING5): 0.4164
Array Heatmap signal, PHF13 (PHF13): 0.6986
Array Heatmap signal, BAZ2B (BAZ2B): 0.546
Array Heatmap signal, MLL5 (MLL5): 0.6789
Array Heatmap signal, SP140L (SP140L): 0.3935
Array Heatmap signal, ING3 (ING3): 0.5221
Array Heatmap signal, RAG2 (RAG2): 0.4186
Array Heatmap signal, PHF2 (PHF2): 0.514
Array Heatmap signal, DPF2 (PPC2W2) (DPF2 (PPC2W2)): 0.7264
Array Heatmap signal, KDM5A (1) (KDM5A (1)): 0.508
Array Heatmap signal, MORC3 (CW) (MORC3 (CW)): 0.5092
Array Heatmap signal, DIDO1 (DIDO1): 0.7409
Array Heatmap signal, KDM4C (TTP) (KDM4C (TTP)): 0.5709
Array Heatmap signal, PHF8 (PHF8): 0.4081
Array Heatmap signal, BPTF (PB) (BPTF (PB)): 0.4125
Array Heatmap signal, PHF23 (PHF23): 0.5739
Array Heatmap signal, PHRF1 (RP) (PHRF1 (RP)): 0.4781
Array Heatmap signal, CHD4 (PPCC) (CHD4 (PPCC)): 0.6243
Array Heatmap signal, TRIM66 (PB) (TRIM66 (PB)): 0.8775
Array Heatmap signal, KDM7A (KDM7A): 0.5358
Array Heatmap signal, KDM5B (1) (KDM5B (1)): 0.7342
Array Heatmap signal, KDM5B (3) (KDM5B (3)): 0.6247
Array Heatmap signal, ING2 (ING2): 0.6427
Array Heatmap signal, AIRE (PP) (AIRE (PP)): 0.5797
Array Heatmap signal, ING4 (ING4): 0.5288
Array Heatmap signal, TAF3 (TAF3): 0.439
